Experimental data reported in patent publication US6875758B2, “Method of treating hyperlipidemic and hyperglycemic conditions in mammals using pregnadienols and pregnadienones” (Council of Scientific & Industrial Research, priority 1999, dated 2005).
Where “and” joins values, the source holds several entries; their conditions need not be identical. Equal entries are not always repeated.

Key:
[1] = test system: hyperlipidemic rabbits; assay: Hypolipidemic effect in hyperlipidemic rabbits (120 days experiment); type: in vivo; parameters: Serum Triglycerides: unit not given here; conditions: 100 mg/kg
[2] = test system: hyperlipidemic male albino rabbits; assay: Hypolipidemic activity in cholesterol fed hyperlipidemic rabbits (90 days); type: in vivo
Method: Effect of 3β-Hydroxypregna-5,16-dien-20-one (2) was studied on hypercholesterolemic albino rabbits. Twelve male albino rabbits (approx 1.5-2 kg) on a stock diet were made hyperlipidemic by feeding daily cholesterol 0.5 g/kg in 2 ml of groundnut oil for 45 days and then blood was drawn from the marginal vein in the ear of rabbits for serum cholesterol and triglycerides estimation.
Two controlled experiments were carried out for a period of three months. In one set of experiments, the control group received 0.5 g/kg of cholesterol for 90 days and 3β-Hydroxypregna-5,16-dien-20-one (2) in dose of 100 mg/kg and 50 mg/kg while in control group (given only cholesterol) a massive rise of serum cholesterol and triglycerides were seen after 90 days, the addition of 3β-Hydroxypregna-5,16dien-20-one (2) at 50 and 100 mg/kg doses kept the rise well under control. The percentage decrease at 100 mg dose was 28% at 30 days to 52% at 90 days for cholesterol and 45 to 81% for triglycerides. In the 50 mg/kg dose group the decrease percentage ranged from 40% at 30 days to 50% at 90 days for cholesterol and 45% at 30 days to 75% at 90 days for triglyceride (Table6)

[3] = test system: streptozotocin induced diabetic rats; assay: Hypoglycemic activity in streptozotocin induced hyperglycemic rats; type: in vivo; conditions: 100 mg/kg p.o.
Method: Hyperglycemia in rats was produced by streptozotocin treatment. The animals showing blood glucose levels between 250-350 mg/dl were selected. Blood samples were collected after treatment at intervals and blood glucose levels were estimated immediately.

[4] = test system: Human serum LDL; assay: Cu2+ induced oxidation of low density lipoprotein (TBA reactive lipid peroxides); type: biochemical; conditions: for MDA (Exp.): 16 hr at 37° C., pH 7.4
Method: Human serum LDL was oxidized with Cu^′2 in different concentrations of test compound in 0.05 mole PBS, pH 7.4 for 16 hr at 37° C. Thiobarbituric acid reactive lipid peroxides are measured by standard procedure. […] Cu^′2 induced oxidation in LDL lipids are mainly due to the free OH radical during incubation.

[5] = Hydroxy (OH) radical formation in nonenzymatic system (Fe2+, ascorbate, H2O2, deoxyribose); type: biochemical
[6] = test system: Rhesus monkeys; assay: Hypolipidemic activity in Rhesus monkeys; type: in vivo; conditions: for S. Triglycerides % Fall: day 60 vs day 0; for HDL-Cholesterol % Change / LDL-Cholesterol % Fall / S. Cholesterol % Fall: day 90 vs day 0
Method: In Rhesus monkeys: 3β-Hydroxypregna-5,16-dien-20one (2) was administered orally daily for 90 days in doses of 62.5, 125 or 650 mg/kg to different group of animals. Significant decrease in serum cholesterol was observed (45-52%).

[7] = test system: Triton treated rats; assay: Cholesterol lowering in Triton treated rats; type: in vivo, Charles Foster rats; conditions: Rattus norvegicus, ip; 50 mg/kg i.p.; read-out: % Change S. Chol.
From the text: The primary hypolipidemic effect of these compounds was established in triton induced hyperlipidemia in Charles Foster rats. […] The cholesterol lowering effect of some representative compounds of pregrenadienols and pregrenadienones as compared to clofibrate and gugulsterone in triton treated Charles Foster rats is described in Table-2.

[8] = 50 mg/kg + cholesterol 0.5 g/kg, day 30
[9] = 50 mg/kg + cholesterol 0.5 g/kg, day 60
[10] = 50 mg/kg + cholesterol 0.5 g/kg, day 90
[11] = 100 mg/kg + cholesterol 0.5 g/kg, day 30
[12] = 100 mg/kg + cholesterol 0.5 g/kg, day 60
[13] = 100 mg/kg + cholesterol 0.5 g/kg, day 90
[14] = 62.5, 125 or 650 mg/kg orally daily for 90 days

CC(=O)C1=CC[C@H]2[C@@H]3CC=C4C[C@@H](O)CC[C@]4(C)[C@H]3CC[C@]12C [Compound 2, 3β-Hydroxypregna-5,16-dien-20-one]
Serum Cholesterol % Decrease (Compared with HFD) [1]: 74% | Serum Triglycerides % Decrease (Compared with HFD) [1]: 61% | Serum Cholesterol ([1]; HFD): 350.0 ± 28.1 mg/dL | Serum Triglycerides ([1]; HFD): 74.2 ± 10.3 | S. Cholesterol [2, 8]: 190.5 mg % | S. Triglycerides [2, 8]: 79.5 mg % | S. Cholesterol [2, 9]: 305.5 mg % | S. Triglycerides [2, 9]: 67.0 mg % | S. Cholesterol [2, 10]: 660.3 mg % | S. Triglycerides [2, 10]: 56.5 mg % | S. Cholesterol % Decrease vs cholesterol control ([2]; 50 mg/kg, day 30): 40% | S. Triglycerides % Decrease vs cholesterol control ([2]; 50 mg/kg, day 30): 45% | S. Cholesterol % Decrease vs cholesterol control ([2]; 50 mg/kg, day 60): 43% | S. Triglycerides % Decrease vs cholesterol control ([2]; 50 mg/kg, day 60): 64% | S. Cholesterol % Decrease vs cholesterol control ([2]; 50 mg/kg, day 90): 50% and 51% | S. Triglycerides % Decrease vs cholesterol control ([2]; 50 mg/kg, day 90): 75% and 76% | S. Cholesterol [2, 11]: 213.3 mg % | S. Triglycerides [2, 11]: 79.0 mg % | S. Cholesterol [2, 12]: 309.3 mg % | S. Triglycerides [2, 12]: 54.0 mg % | S. Cholesterol [2, 13]: 633.7 mg % | S. Triglycerides [2, 13]: 44.2 mg % | S. Cholesterol % Decrease vs cholesterol control ([2]; 100 mg/kg, day 30): 28% | S. Triglycerides % Decrease vs cholesterol control ([2]; 100 mg/kg, day 30): 45% and 46% | S. Cholesterol % Decrease vs cholesterol control ([2]; 100 mg/kg, day 60): 42% | S. Triglycerides % Decrease vs cholesterol control ([2]; 100 mg/kg, day 60): 64% | S. Cholesterol % Decrease vs cholesterol control ([2]; 100 mg/kg, day 90): 52% and 53% | S. Triglycerides % Decrease vs cholesterol control ([2]; 100 mg/kg, day 90): 81% | Blood Glucose Level ([3]; 0 hr): 274 ± 9 mg/dL | % lowering from zero hour value (blood glucose) ([3]; 1 hr): (11.3) % | % lowering from zero hour value (blood glucose) ([3]; 2 hr): (15.6) % | % lowering from zero hour value (blood glucose) ([3]; 3 hr): (25.9) % | % lowering from zero hour value (blood glucose) ([3]; 4 hr): (33.2) % | % lowering from zero hour value (blood glucose) ([3]; 5 hr): (42.7) % | % lowering from zero hour value (blood glucose) ([3]; 6 hr): (51.4) % | % lowering from zero hour value (blood glucose) ([3]; 7 hr): (62.7) % | % lowering from zero hour value (blood glucose) ([3]; 8 hr): (66.7) % | % lowering from zero hour value (blood glucose) ([3]; 24 hr): (52.2) % | % inhibition of LDL oxidation ([4]; 2.5 μmol/ml): (26) % | MDA (Exp.) ([4]; 2.5 μmol/ml): 41.4 ± 1.7 n mol MDA/mg protein | % inhibition of LDL oxidation ([4]; 5.0 μmol/ml): (49) % | MDA (Exp.) ([4]; 5.0 μmol/ml): 28.7 ± 4.0 n mol MDA/mg protein | % inhibition of LDL oxidation ([4]; 10.0 μmol/ml): (74) % | MDA (Exp.) ([4]; 10.0 μmol/ml): 10.6 ± 0.5 n mol MDA/mg protein | % inhibition of LDL oxidation ([4]; 20 μmol/ml): (89) % | MDA (Exp.) ([4]; 20 μmol/ml): 4.0 ± 0.5 n mol MDA/mg protein | generation of LDL lipid peroxide (in words) ([4]; tested concentrations): inhibit the generation of LDL lipid peroxide in concentration dependent manner | generation of OH radical (in words) [5]: inhibits the generation of OH radical in concentration dependent manner | % inhibition of OH radical formation ([5]; 5 μmol/ml): (28) % | OH radical formation ([5]; 5 μmol/ml): 65.0 ± 5.4 nmol MDA/hr | % inhibition of OH radical formation ([5]; 10 μmol/ml): (42) % | OH radical formation ([5]; 10 μmol/ml): 52.8 ± 4.2 nmol MDA/hr | % inhibition of OH radical formation ([5]; 20 μmol/ml): (74) % | OH radical formation ([5]; 20 μmol/ml): 23.3 ± 1.8 nmol MDA/hr | % inhibition of OH radical formation ([5]; 30 μmol/ml): (87) % | OH radical formation ([5]; 30 μmol/ml): 11.7 ± 1.3 nmol MDA/hr | % inhibition of OH radical formation ([5]; 40 μmol/ml): (88) % | OH radical formation ([5]; 40 μmol/ml): 10.4 ± 2.0 nmol MDA/hr | % inhibition of OH radical formation ([5]; 50 μmol/ml): (90) % | OH radical formation ([5]; 50 μmol/ml): 9.9 ± 0.8 nmol MDA/hr | S. Cholesterol ([6]; 62.5 mg/kg orally daily, day 0): 156.8 ± 23.0 mg/dL | S. Triglycerides ([6]; 62.5 mg/kg orally daily, day 0): 77.5 ± 7.0 mg/dL | S. Triglycerides ([6]; 62.5 mg/kg orally daily, day 60): 66.3 ± 6.9 mg/dL | S. Cholesterol ([6]; 62.5 mg/kg orally daily, day 90): 83.3 ± 8.5 mg/dL | HDL-Cholesterol ([6]; 62.5 mg/kg, day 0): 50.0 ± 4.5 mg/dL | LDL-Cholesterol ([6]; 62.5 mg/kg, day 0): 91.8 ± 27.0 mg/dL | S. Triglycerides % Fall ([6]; 62.5 mg/kg): 14% | HDL-Cholesterol ([6]; 62.5 mg/kg, day 90): 45.0 ± 2.5 mg/dL | LDL-Cholesterol ([6]; 62.5 mg/kg, day 90): 24.3 ± 8.0 mg/dL | HDL-Cholesterol % Change ([6]; 62.5 mg/kg): −8% | LDL-Cholesterol % Fall ([6]; 62.5 mg/kg): 75% | S. Cholesterol % Fall ([6]; 62.5 mg/kg): 47% | S. Cholesterol ([6]; 125 mg/kg orally daily, day 0): 133.3 ± 8.5 mg/dL | S. Triglycerides ([6]; 125 mg/kg orally daily, day 0): 69.8 ± 9.9 mg/dL | S. Triglycerides ([6]; 125 mg/kg orally daily, day 60): 60.0 ± 2.9 mg/dL | S. Cholesterol ([6]; 125 mg/kg orally daily, day 90): 65.8 ± 2.2 mg/dL | HDL-Cholesterol ([6]; 125 mg/kg, day 0): 46.3 ± 2.0 mg/dL | LDL-Cholesterol ([6]; 125 mg/kg, day 0): 63.5 ± 7.4 mg/dL | S. Triglycerides % Fall ([6]; 125 mg/kg): 13% | HDL-Cholesterol ([6]; 125 mg/kg, day 90): 50.8 ± 0.5 mg/dL | LDL-Cholesterol ([6]; 125 mg/kg, day 90): 4.6 ± 0.9 mg/dL | HDL-Cholesterol % Change ([6]; 125 mg/kg): +10% | LDL-Cholesterol % Fall ([6]; 125 mg/kg): 90% | S. Cholesterol % Fall ([6]; 125 mg/kg): 50% | S. Cholesterol ([6]; 650 mg/kg orally daily, day 0): 132.8 ± 6.4 mg/dL | S. Triglycerides ([6]; 650 mg/kg orally daily, day 0): 90.5 ± 3.9 mg/dL | S. Triglycerides ([6]; 650 mg/kg orally daily, day 60): 58.5 ± 3.8 mg/dL | S. Cholesterol ([6]; 650 mg/kg orally daily, day 90): 63.3 ± 2.3 mg/dL | HDL-Cholesterol ([6]; 650 mg/kg, day 0): 39.3 ± 1.3 mg/dL | LDL-Cholesterol ([6]; 650 mg/kg, day 0): 72.7 ± 8.4 mg/dL | S. Triglycerides % Fall ([6]; 650 mg/kg): 36% | HDL-Cholesterol ([6]; 650 mg/kg, day 90): 41.8 ± 0.9 mg/dL | LDL-Cholesterol ([6]; 650 mg/kg, day 90): 13.1 ± 0.7 mg/dL | HDL-Cholesterol % Change ([6]; 650 mg/kg): +6% | LDL-Cholesterol % Fall ([6]; 650 mg/kg): 82% | S. Cholesterol % Fall ([6]; 650 mg/kg): 53% | changes in HDL-cholesterol [6, 14]: not significant | decrease in low density lipoprotein [6, 14]: 75-90% | decrease in serum cholesterol [6, 14]: 45-52% | change in vivo at 50 mg/kg [7]: -46%
